This passage reports Ki results from patent US9790230B2 (Hoffmann-La Roche Inc., priority 2015, dated 2017).

Structures are written as SMILES. Read-outs that look alike come from different tables or passages of the source.

One test addresses rat TAAR1 (Rattus norvegicus (Rat), UniProt Q923Y9). Nature of the test: Radioligand binding assay on rat TAAR1.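 Further: membranes from HEK293 cells stably transfected with rat TAAR1, tritiated TAAR1 radioligand, 1 h incubation at 4 °C, nonspecific binding determined with excess unlabeled ligand.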
In another test the target is mouse TAAR1 (Mus musculus (Mouse), UniProt Q923Y8). As to the kind of experiment: Radioligand binding assay on mouse TAAR1.
Sequence of mouse TAAR1 (Q923Y8 whole entry): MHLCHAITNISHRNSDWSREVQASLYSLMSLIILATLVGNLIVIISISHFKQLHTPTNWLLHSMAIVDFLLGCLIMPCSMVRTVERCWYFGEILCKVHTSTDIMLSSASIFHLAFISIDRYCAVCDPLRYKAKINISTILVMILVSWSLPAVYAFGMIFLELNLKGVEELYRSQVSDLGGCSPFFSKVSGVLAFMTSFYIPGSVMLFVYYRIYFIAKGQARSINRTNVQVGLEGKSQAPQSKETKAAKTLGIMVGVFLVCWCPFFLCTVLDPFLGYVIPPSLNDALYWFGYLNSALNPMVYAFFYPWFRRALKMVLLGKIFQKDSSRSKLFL

Sequence of rat TAAR1 (Q923Y9 whole entry): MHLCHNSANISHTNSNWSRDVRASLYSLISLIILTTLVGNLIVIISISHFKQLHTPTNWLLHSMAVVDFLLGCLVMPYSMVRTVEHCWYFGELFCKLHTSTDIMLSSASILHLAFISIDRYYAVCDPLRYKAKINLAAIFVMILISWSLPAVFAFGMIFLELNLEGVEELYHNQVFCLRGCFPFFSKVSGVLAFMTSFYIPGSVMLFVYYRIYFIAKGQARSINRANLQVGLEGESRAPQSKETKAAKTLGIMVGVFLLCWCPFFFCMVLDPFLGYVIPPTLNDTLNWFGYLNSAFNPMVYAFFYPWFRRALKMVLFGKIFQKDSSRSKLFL
Method for mouse TAAR1: Radioligand Binding Assay on Mouse TAAR1
(§1) Membrane Preparation and Radioligand Binding.
HEK-293 cells stably expressing mouse TAAR1 were maintained at 37° C. and 5% CO2 in DMEM high glucose medium, containing fetal calf serum (10%, heat inactivated for 30 min at 56° C.), penicillin/streptomycin (1%), and 375 μg/ml geneticin (Gibco). Cells were released from culture flasks using trypsin/EDTA, harvested, washed twice with ice-cold PBS (without Ca^2+ and Mg^2+), pelleted at 1'000 rpm for 5 min at 4° C., frozen and stored at −80° C. Frozen pellets were suspended in 20 ml HEPES-NaOH (20 mM, pH 7.4) containing 10 mM EDTA and homogenized with a Polytron (PT 6000, Kinematica) at 14'000 rpm for 20 s. The homogenate was centrifuged at 48'000×g for 30 min at 4° C. Subsequently, the supernatant was removed and discarded, and the pellet resuspended in 20 ml HEPES-NaOH (20 mM, pH 7.4) containing 0.1 mM EDTA using the Polytron (20 s at 14'000 rpm). This procedure was repeated and the final pellet resuspended in HEPES-NaOH containing 0.1 mM EDTA and homogenized using the Polytron. Typically, aliquots of 2 ml membrane portions were stored at −80° C. With each new membrane batch the dissociation constant (Kd) was determined via a saturation curve. The TAAR1 radioligand ^3[H]—(S)-4-[(ethyl-phenyl-amino)-methyl]-4,5-dihydro-oxazol-2-ylamine (described in WO 2008/098857) was used at a concentration equal to the calculated Kd value, that was usually around 0.7 nM, resulting in the binding of approximately 0.5% of the radioligand and a specific binding representing approximately 70% of the total binding. Nonspecific binding was defined as the amount of ^3[H]—(S)-4-[(ethyl-phenyl-amino)-methyl]-4,5-dihydro-oxazol-2-ylamine bound in the presence of 10 M unlabeled ligand. All compounds were tested at a broad range of concentrations (10 pM to 10 μM) in duplicates. […] The 96 deep well plates were incubated for 1 hr at 4° C. Incubations were terminated by rapid filtration through Unifilter-96 plates (Packard Instrument Company) and glass filters GF/C (Perkin Elmer) presoaked for 1 hr in polyethylenimine (0.3%) and washed 3 times with 1 ml of cold binding buffer. After addition of 45 μl of Microscint 40 (PerkinElmer) the Unifilter-96 plate was sealed and after 1 hr the radioactivity counted using a TopCount Microplate Scintillation Counter (Packard Instrument Company).
Method for rat TAAR1: as §1
HEK-293 cells stably expressing rat TAAR1 were maintained at 37° C. and 5% CO2 in DMEM high glucose medium, containing fetal calf serum (10%, heat inactivated for 30 min at 56° C.), penicillin/streptomycin (1%), and 375 μg/ml geneticin (Gibco). Cells were released from culture flasks using trypsin/EDTA, harvested, washed twice with ice-cold PBS (without Ca^2+ and Mg^2+), pelleted at 1'000 rpm for 5 min at 4° C., frozen and stored at −80° C. Frozen pellets were suspended in 20 ml HEPES-NaOH (20 mM, pH 7.4) containing 10 mM EDTA and homogenized with a Polytron (PT 6000, Kinematica) at 14′000 rpm for 20 s. The homogenate was centrifuged at 48'000×g for 30 min at 4° C. Subsequently, the supernatant was removed and discarded, and the pellet resuspended in 20 ml HEPES-NaOH (20 mM, pH 7.4) containing 0.1 mM EDTA using the Polytron (20 s at 14'000 rpm). This procedure was repeated and the final pellet resuspended in HEPES-NaOH containing 0.1 mM EDTA and homogenized using the Polytron. Typically, aliquots of 2 ml membrane portions were stored at −80° C. With each new membrane batch the dissociation constant (Kd) was determined via a saturation curve. […] Nonspecific binding was defined as the amount of 3 [H]—(S)-4-[(ethyl-phenyl-amino)-methyl]-4,5-dihydro-oxazol-2-ylamine bound in the presence of 10 M unlabeled ligand. All compounds were tested at a broad range of concentrations (10 pM to 10 μM) in duplicates. […] The 96 deep well plates were incubated for 1 hr at 4° C. Incubations were terminated by rapid filtration through Unifilter-96 plates (Packard Instrument Company) and glass filters GF/C (Perkin Elmer) presoaked for 1 hr in polyethylenimine (0.3%) and washed 3 times with 1 ml of cold binding buffer. After addition of 45 μl of Microscint 40 (PerkinElmer) the Unifilter-96 plate was sealed and after 1 hr the radioactivity counted using a TopCount Microplate Scintillation Counter (Packard Instrument Company).

One may read the Ki as a measure of affinity in units of concentration, obtained from inhibition or displacement. On to `c1ccc([C@@H]2O[C@H]3CN[C@@H]2C3)nc1` [Example 104, (1R,3R,4R)-3-(2-Pyridyl)-2-oxa-5-azabicyclo[2.2.1]heptane], for which the Ki on rat TAAR1 was more than 1.5 µM; at mouse TAAR1, more than 1.49 µM.

As for `O=C(COCCC(F)(F)F)Nc1ccc([C@H]2O[C@@H]3CN[C@H]2C3)cc1` [Example 70, N-[4-[(1S,3R,4S)-2-Oxa-5-azabicyclo[2.2.1]heptan-3-yl]phenyl]-2-(3,3,3-trifluoropropoxy)acetamide], the Ki came to 0.512 µM on rat TAAR1 and 0.0094 µM at mouse TAAR1.

On to `Brc1ccc([C@H]2O[C@@H]3CN[C@H]2C3)cc1` [Example 53, (1S,3R,4S)-3-(4-Bromophenyl)-2-oxa-5-azabicyclo[2.2.1]heptane], for which the Ki at rat TAAR1 was determined as 0.0052 µM; at mouse TAAR1, 0.0034 µM.

Turning to `O=C(Nc1ccc(Cl)cc1)Nc1cccc([C@@H]2O[C@H]3CN[C@@H]2C3)c1` [Example 4, 1-(4-Chlorophenyl)-3-[3-[(1R,3S,4R)-2-oxa-5-azabicyclo[2.2.1]heptan-3-yl]phenyl]urea], the Ki is 0.0102 µM at rat TAAR1 and 1.28 µM at mouse TAAR1.

On to `CC(C)n1nc(OCC(F)(F)F)cc1C(=O)Nc1ccc([C@@H]2O[C@H]3CN[C@@H]2C3)cc1` [Example 89, 2-Isopropyl-N-[4-[(1R,3S,4R)-2-oxa-5-azabicyclo[2.2.1]heptan-3-yl]phenyl]-5-(2,2,2-trifluoroethoxy)pyrazole-3-carboxamide], for which the Ki was found to be 0.0026 µM at rat TAAR1 and 0.028 µM on mouse TAAR1.

As for `O=C(NCc1ccc(C(F)(F)F)cc1)c1ccc([C@H]2O[C@@H]3CN[C@H]2C3)cc1` [Example 63, 4-[(1S,3R,4S)-2-Oxa-5-azabicyclo[2.2.1]heptan-3-yl]-N-[[4-(trifluoromethyl)phenyl]methyl]benzamide], the Ki on rat TAAR1 came out at 0.593 µM; on mouse TAAR1, 0.0034 µM.

Regarding `O=C(Nc1ccc([C@@H]2O[C@H]3CN[C@@H]2C3)cc1)c1cnc(C2CC2)nc1` [Example 29, 2-Cyclopropyl-N-[4-[(1R,3S,4R)-2-oxa-5-azabicyclo[2.2.1]heptan-3-yl]phenyl]pyrimidine-5-carboxamide], the Ki is 0.0438 µM on rat TAAR1 and 0.0315 µM at mouse TAAR1.

For the compound `FC(F)(F)c1ccc(Nc2ccc([C@H]3O[C@@H]4CN[C@H]3C4)cc2)cn1` [Example 61, N-[4-[(1S,3R,4S)-2-Oxa-5-azabicyclo[2.2.1]heptan-3-yl]phenyl]-6-(trifluoromethyl)pyridin-3-amine], the Ki is 0.715 µM on rat TAAR1 and 0.0077 µM on mouse TAAR1.

Regarding `O=C(Nc1ccc([C@@H]2O[C@H]3CN[C@@H]2C3)cc1)c1ccc(C(F)(F)F)cn1` [Example 71, N-[4-[(1R,3S,4R)-2-Oxa-5-azabicyclo[2.2.1]heptan-3-yl]phenyl]-5-(trifluoromethyl)pyridine-2-carboxamide], the Ki on rat TAAR1 was determined as 0.0135 µM; at mouse TAAR1, 0.0054 µM.

Regarding `O=C(Nc1ccc([C@H]2O[C@@H]3CN[C@H]2C3)cc1)c1ccnc(C(F)(F)F)c1` [Example 25, N-[4-[(1S,3R,4S)-2-Oxa-5-azabicyclo[2.2.1]heptan-3-yl]phenyl]-2-(trifluoromethyl)pyridine-4-carboxamide], the inhibition constant Ki at rat TAAR1 was determined as 0.327 µM; on mouse TAAR1 it was 0.0224 µM.

On to `O=C(Nc1ccc([C@H]2O[C@@H]3CN[C@H]2C3)cc1)c1ccc(C(F)(F)F)nc1` [Example 44, N-[4-[(1S,3R,4S)-2-Oxa-5-azabicyclo[2.2.1]heptan-3-yl]phenyl]-6-(trifluoromethyl)pyridine-3-carboxamide], for which the Ki at rat TAAR1 amounted to 0.0848 µM; on mouse TAAR1 it was 0.0111 µM.

For the compound `c1ccc([C@H]2O[C@@H]3CN[C@H]2C3)cc1` [Example 9, (1S,3R,4S)-3-Phenyl-2-oxa-5-azabicyclo[2.2.1]heptane], the figures for the Ki on rat TAAR1 and on mouse TAAR1 were 0.369 µM and 0.0349 µM, respectively.

`CCCc1n[nH]c(C(=O)Nc2ccc([C@H]3O[C@@H]4CN[C@H]3C4)cc2)c1Cl` [Example 49, 4-Chloro-N-[4-[(1S,3R,4S)-2-oxa-5-azabicyclo[2.2.1]heptan-3-yl]phenyl]-3-propyl-1H-pyrazole-5-carboxamide]: the figures for the Ki at rat TAAR1 and at mouse TAAR1 were 0.037 µM and 0.0044 µM, respectively.

For the compound `O=C(NCc1ccc(Cl)cc1)c1ccc([C@H]2O[C@@H]3CN[C@H]2C3)cc1` [Example 64, N-[(4-Chlorophenyl)methyl]-4-[(1S,3R,4S)-2-oxa-5-azabicyclo[2.2.1]heptan-3-yl]benzamide], the Ki on rat TAAR1 turned out to be 1.6 µM; at mouse TAAR1 it was 0.0033 µM.

In the case of `O=C(Nc1ccc([C@H]2O[C@@H]3CN[C@H]2C3)cc1)c1cnc(C2CC2)nc1` [Example 18, 2-Cyclopropyl-N-[4-[(1S,3R,4S)-2-oxa-5-azabicyclo[2.2.1]heptan-3-yl]phenyl]pyrimidine-5-carboxamide], the Ki was determined as 2.03 µM on rat TAAR1 and 0.038 µM at mouse TAAR1.

Take `O=C(Nc1ccc([C@@H]2O[C@H]3CN[C@@H]2C3)cc1)c1ccc(OCC(F)(F)F)nc1` [Example 27, N-[4-[(1R,3S,4R)-2-Oxa-5-azabicyclo[2.2.1]heptan-3-yl]phenyl]-6-(2,2,2-trifluoroethoxy)pyridine-3-carboxamide]: the Ki amounted to 0.0417 µM on rat TAAR1 and 0.0097 µM on mouse TAAR1.

For `FC(F)(F)COc1nccc(Nc2ccc([C@H]3O[C@@H]4CN[C@H]3C4)cc2)n1` [Example 80, N-[4-[(1S,3R,4S)-2-Oxa-5-azabicyclo[2.2.1]heptan-3-yl]phenyl]-2-(2,2,2-trifluoroethoxy)pyrimidin-4-amine], the Ki at rat TAAR1 came to 1.08 µM; on mouse TAAR1, 0.0077 µM.

`CCOc1ccc(NC(=O)c2ccc([C@@H]3O[C@H]4CN[C@@H]3C4)cc2)cn1` [Example 95, N-(6-Ethoxy-3-pyridyl)-4-[(1R,3S,4R)-2-oxa-5-azabicyclo[2.2.1]heptan-3-yl]benzamide]: the Ki is more than 1.45 µM at rat TAAR1 and 0.0613 µM on mouse TAAR1.

`CCc1ncc(C(=O)Nc2ccc([C@H]3O[C@@H]4CN[C@H]3C4)cc2)cn1` [Example 34, 2-Ethyl-N-[4-[(1S,3R,4S)-2-oxa-5-azabicyclo[2.2.1]heptan-3-yl]phenyl]pyrimidine-5-carboxamide]: the Ki on rat TAAR1 was found to be 0.457 µM; on mouse TAAR1, 0.0563 µM.

As for `Cc1c(C2CC2)n[nH]c1C(=O)Nc1ccc([C@@H]2O[C@H]3CN[C@@H]2C3)cc1` [Example 69, 3-Cyclopropyl-4-methyl-N-[4-[(1R,3S,4R)-2-oxa-5-azabicyclo[2.2.1]heptan-3-yl]phenyl]-1H-pyrazole-5-carboxamide], the results for the Ki at rat TAAR1 and on mouse TAAR1 were 0.153 µM and 0.0066 µM, respectively.

Turning to `CCOc1ccc(NC(=O)c2ccc([C@H]3O[C@@H]4CN[C@H]3C4)cc2)cc1` [Example 58, N-(4-Ethoxyphenyl)-4-[(1S,3R,4S)-2-oxa-5-azabicyclo[2.2.1]heptan-3-yl]benzamide], the Ki was more than 10 µM at rat TAAR1 and 0.0013 µM at mouse TAAR1.

Consider `O=C(NCc1ccc(Cl)cc1)c1ccc([C@@H]2O[C@H]3CN[C@@H]2C3)cc1` [Example 97, N-[(4-Chlorophenyl)methyl]-4-[(1R,3S,4R)-2-oxa-5-azabicyclo[2.2.1]heptan-3-yl]benzamide], for which the figures for the Ki at rat TAAR1 and on mouse TAAR1 were more than 1.45 µM and 0.0511 µM, respectively.

Turning to `O=C(Nc1ccc([C@@H]2O[C@H]3CN[C@@H]2C3)cc1)c1[nH]nc(C2CC2)c1F` [Example 77, 3-Cyclopropyl-4-fluoro-N-[4-[(1R,3S,4R)-2-oxa-5-azabicyclo[2.2.1]heptan-3-yl]phenyl]-11H-pyrazole-5-carboxamide], the Ki on rat TAAR1 (read-out: Ki (μM) rat, rat TAAR1, HEK-293 membranes, second value of cell mouse/rat) worked out at 0.137 µM; at mouse TAAR1 (read-out: Ki (μM) mouse, mouse TAAR1, HEK-293 membranes, first value of cell mouse/rat), 0.0048 µM.
